Source: patent US8461184B2, “Sulphur containing pyrazole derivatives as selective cannabinoid CB1 receptor antagonists” (Solvay Pharmaceuticals B.V., priority 2006, dated 2013)
Read-outs that look alike come from different tables or passages of the source.

Key:
[1] = molecular target: T1, human cannabinoid CB1 receptor (Homo sapiens, UniProt P21554); experiment: In vitro affinity for human cannabinoid-CB1 receptors ([3H]CP-55,940 radioligand, CHO cell membranes); type: binding; settings: for CB1/CB2 ratio: CB1/CB2 receptor selectivity ratio from hCB1 and hCB2 Ki; for Ki: human CB1 receptor in CHO cell membranes, [3H]CP-55,940, mean of at least three independent experiments, read-out: hCB1 Ki
T1 construct: expressed in transfected cells; host or cells: Chinese hamster ovary (CHO) cells, membrane preparation
T1 sequence (P21554 whole entry): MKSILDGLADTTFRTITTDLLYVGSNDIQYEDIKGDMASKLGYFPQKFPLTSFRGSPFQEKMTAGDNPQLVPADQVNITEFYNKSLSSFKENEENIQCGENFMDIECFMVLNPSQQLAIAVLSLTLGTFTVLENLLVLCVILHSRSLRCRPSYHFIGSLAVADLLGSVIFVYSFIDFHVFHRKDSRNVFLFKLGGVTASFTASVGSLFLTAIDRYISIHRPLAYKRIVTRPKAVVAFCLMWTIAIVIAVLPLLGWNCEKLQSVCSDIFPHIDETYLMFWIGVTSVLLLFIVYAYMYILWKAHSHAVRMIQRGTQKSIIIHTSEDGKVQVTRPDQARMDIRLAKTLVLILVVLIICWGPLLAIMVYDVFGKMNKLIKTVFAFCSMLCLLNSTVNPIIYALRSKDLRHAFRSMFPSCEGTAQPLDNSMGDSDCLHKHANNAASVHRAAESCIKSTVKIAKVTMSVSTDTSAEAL
Experimental: In vitro affinity for human cannabinoid-CB1 receptors.
(§1) The affinity of the compounds of the invention for cannabinoid CB1 receptors can be determined using membrane preparations of Chinese hamster ovary (CHO) cells in which the human cannabinoid CB1 receptor is stably transfected in conjunction with [^3H]CP-55,940 as radioligand. After incubation of a freshly prepared cell membrane preparation with the [^3H]-ligand, with or without addition of compounds of the invention, separation of bound and free ligand is performed by filtration over glassfiber filters. Radioactivity on the filter is measured by liquid scintillation counting.

[2] = molecular target: T2, human cannabinoid CB2 receptor (Homo sapiens, UniProt P34972); experiment: In vitro affinity for human cannabinoid-CB2 receptors ([3H]CP-55,940 radioligand, CHO cell membranes); type: binding; settings: mean of at least three independent experiments, read-out: hCB2 Ki
T2 construct: expressed in transfected cells; host or cells: Chinese hamster ovary (CHO) cells, membrane preparation
T2 sequence (P34972 whole entry): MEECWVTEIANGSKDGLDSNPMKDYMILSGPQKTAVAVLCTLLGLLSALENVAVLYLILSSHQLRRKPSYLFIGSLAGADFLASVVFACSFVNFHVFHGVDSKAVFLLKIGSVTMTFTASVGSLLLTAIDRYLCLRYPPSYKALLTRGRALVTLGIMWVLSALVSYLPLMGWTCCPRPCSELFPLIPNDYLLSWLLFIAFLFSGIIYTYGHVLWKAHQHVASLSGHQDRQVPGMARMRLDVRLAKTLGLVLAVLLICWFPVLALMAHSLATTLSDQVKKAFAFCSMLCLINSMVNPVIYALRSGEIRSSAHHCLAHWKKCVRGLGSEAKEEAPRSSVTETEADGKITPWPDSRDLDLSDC
Experimental: In vitro affinity for human cannabinoid-CB2 receptors.
as §1, with “cannabinoid CB2” for “cannabinoid CB1”, “filter was” for “filter is”

CB1 receptor = molecular target: T3, CB1 receptor (Rattus norvegicus, UniProt P20272); experiment: CP-55,940 induced hypotension in the rat; type: in vivo; settings: read-out: Blood pressure (rat) ED50
T3 construct: from tissue; host or cells: whole animal: male normotensive rats (Harlan)
T3 sequence (P20272 whole entry): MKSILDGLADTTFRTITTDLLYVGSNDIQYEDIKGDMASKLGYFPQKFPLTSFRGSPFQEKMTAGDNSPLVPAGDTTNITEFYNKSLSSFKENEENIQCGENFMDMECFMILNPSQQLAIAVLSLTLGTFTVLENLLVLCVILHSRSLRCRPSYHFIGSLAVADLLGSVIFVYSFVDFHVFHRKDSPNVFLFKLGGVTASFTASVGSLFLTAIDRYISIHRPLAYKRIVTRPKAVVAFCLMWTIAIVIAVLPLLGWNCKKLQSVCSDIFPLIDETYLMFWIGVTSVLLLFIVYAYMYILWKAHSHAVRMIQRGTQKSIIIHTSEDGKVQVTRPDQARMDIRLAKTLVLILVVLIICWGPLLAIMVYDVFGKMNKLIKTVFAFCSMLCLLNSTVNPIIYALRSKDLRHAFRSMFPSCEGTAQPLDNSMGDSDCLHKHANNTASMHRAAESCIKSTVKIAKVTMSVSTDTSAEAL
Experimental: Blood pressure was measured, via a cannula inserted into the left carotid artery, by means of a Spectramed DTX-plus pressure transducer (Spectramed B. V., Bilthoven, The Netherlands). […] Heart rate was derived from the pulsatile pressure signal. […] The injection volume was 10 ml/kg.

[3] = p.o., antagonism of hypotension induced by CP-55,940 (0.1 mg/kg i.v.), anaesthetized male normotensive rats

| CB1/CB2 ratio [1] | Ki [1] [nM] | Ki [2] [nM] | Compound | melting point [°C] | ED50 (CB1 receptor) [mg/kg] | ED50 (CB1 receptor; [3]) [mg/kg] |
| --- | --- | --- | --- | --- | --- | --- |
| >34 | < 10 | 340 | CSc1c(C(=O)NN2CCCC2)nn(-c2ccc(Cl)cc2Cl)c1-c1ccc(Cl)cc1 [Comp. 2, 5-(4-Chlorophenyl)-1-(2,4-dichlorophenyl)-4-methylsulfanyl-N-(pyrrolidin-1-yl)-1H-pyrazole-3-carboxamide] | – | – | 1.9 |
| 25 | 20 | 500 | CSc1c(C(=O)NN2CCCCCC2)nn(-c2ccc(Cl)cc2Cl)c1-c1ccc(Cl)cc1 [Comp. 3, 5-(4-Chlorophenyl)-1-(2,4-dichlorophenyl)-4-methylsulfanyl-N-(azepan-1-yl)-1H-pyrazole-3-carboxamide] | – | – | 3.1 |

| Compound | CB1/CB2 ratio [1] | Ki [1] [nM] | Ki [2] [nM] | melting point [°C] | ED50 (CB1 receptor) [mg/kg] | ED50 (CB1 receptor; [3]) [mg/kg] |
| --- | --- | --- | --- | --- | --- | --- |
| CSc1c(C(=O)NN2CCCCC2)nn(-c2ccc(Cl)cc2Cl)c1-c1ccc(Cl)cc1 [Comp. 1, 5-(4-Chlorophenyl)-1-(2,4-dichlorophenyl)-4-methylsulfanyl-N-(piperidin-1-yl)-1H-pyrazole-3-carboxamide] | 67 | 10 | 668 | 172.4 to 174.5 | 1.5 | – |
